Measurements reported in patent US20260000656A1, “ANTIFUNGAL AGENTS WITH ENHANCED ACTIVITY IN ACIDIC PH” (Scynexis, Inc., priority 2017, published 2026).
In brackets after ≈: the same amount, converted by molar mass. Like-named read-outs stand apart in the source and are kept apart here.

How the values were obtained:
[1] = tested on: C. glabrata isolates; assay: Broth microdilution susceptibility (CLSI M27-A3) at different medium pH; assay type: cell-based, Candida glabrata; settings: Nakaseomyces glabratus, 24 h; for MIC50: read-out: MIC50; for MIC90: read-out: MIC90
Protocol: (§1) Ten strains each of C. glabrata and C. albicans vaginal isolates were tested. The strains were obtained from recent clinical trial patients with vulvovaginal candidiasis (VVC) prior to treatment. Candida strains were obtained from the Mycology Reference Library (MRL) at Case Western Reserve University School of Medicine, Ohio, United States.
(§2) Susceptibility testing was performed using a broth microdilution method, according to CLSI M27-A3 guidelines (CLSI. 2008. Reference Method for Broth Dilution Antifungal Susceptibility Testing of Yeasts; Approved Standard—Third Edition. Clinical and Laboratory Standards Institute, CLSI document M27-A3). Antifungals and concentrations tested were SCY-078 and micafungin (both at concentrations within the range of 0.015 to 8 μg/ml) and fluconazole (at concentrations within the range of 0.125 to 64 μg/ml). A 0.1-ml C. albicans and C. glabrata inoculum of 0.5-2.5×10^3 blastospores/ml in RPMI 1640 medium was added to each microdilution well. ATCC strains of Candida parapsilosis and Candida krusei QC isolates were also included concurrently to ensure quality control. Antifungal susceptibility testing was carried out for each isolate in RPMI 1640 at pH 7 (to mimic RPMI medium used in testing the susceptibility of yeast by the CLSI M-27A3 document), pH 5.7, and pH 4.5 (to mimic the pH of the vaginal cavity) by adjusting the pH of the media using NaOH or HCl. […] Agents Chemother., 43: 1383-1386 (1999).
(§3) […] SCY-078 powder was manufactured by Avista, Laboratories, NC. Micafungin and fluconazole were sourced from LGM Pharma.

[2] = tested on: C. albicans isolates; assay: as above; assay type: cell-based, Candida albicans; settings: 50% inhibition, pH 4.5, 24 h, 10 vaginal isolates
Protocol: as §1, §2, §3

[3] = pH 7, 50% inhibition, pH 7.0, 24 h, 10 vaginal isolates
[4] = pH 7, 100% inhibition, pH 7.0, 24 hours, 10 isolates

CC(C)[C@@H](C)[C@@]1(C)CC[C@]2(C)[C@H]3CC[C@@H]4[C@@]5(COC[C@]4(C)[C@@H](OC[C@](C)(N)C(C)(C)C)[C@H](n4ncnc4-c4ccncc4)C5)C3=CC[C@@]2(C)[C@@H]1C(=O)O [SCY-078]
MIC ([1]; pH 5.72, C. glabrata MRL 32626, pH 5.72, 24 hours, read-out: MIC (100% inhibition)): 1 µg/mL (≈ 1.37 µM) | MIC ([1]; pH 5.72, C. glabrata MRL 32993, pH 5.72, 24 hours, read-out: MIC (50% inhibition)): 0.5 µg/mL (≈ 0.685 µM) | MIC ([1]; pH 5.72, C. glabrata MRL 32993, pH 5.72, 24 hours, read-out: MIC (100% inhibition)): 1 µg/mL (≈ 1.37 µM) | MIC ([1]; pH 5.72, C. glabrata MRL 33204, pH 5.72, 24 hours, read-out: MIC (50% inhibition)): 0.5 µg/mL (≈ 0.685 µM) | MIC ([1]; pH 5.72, C. glabrata MRL 33204, pH 5.72, 24 hours, read-out: MIC (100% inhibition)): 1 µg/mL (≈ 1.37 µM) | MIC ([1]; pH 5.72, C. glabrata MRL 33960, pH 5.72, 24 hours, read-out: MIC (50% inhibition)): 0.5 µg/mL (≈ 0.685 µM) | MIC ([1]; pH 5.72, C. glabrata MRL 33960, pH 5.72, 24 hours, read-out: MIC (100% inhibition)): 1 µg/mL (≈ 1.37 µM) | MIC ([1]; pH 5.72, C. glabrata MRL 33961, pH 5.72, 24 hours, read-out: MIC (50% inhibition)): 0.5 µg/mL (≈ 0.685 µM) | MIC ([1]; pH 5.72, C. glabrata MRL 33961, pH 5.72, 24 hours, read-out: MIC (100% inhibition)): 1 µg/mL (≈ 1.37 µM) | MIC ([1]; pH 5.72, C. glabrata MRL 34339, pH 5.72, 24 hours, read-out: MIC (50% inhibition)): 0.5 µg/mL (≈ 0.685 µM) | MIC ([1]; pH 5.72, C. glabrata MRL 34339, pH 5.72, 24 hours, read-out: MIC (100% inhibition)): 1 µg/mL (≈ 1.37 µM) | MIC ([1]; pH 5.72, C. glabrata MRL 34407, pH 5.72, 24 hours, read-out: MIC (50% inhibition)): 0.5 µg/mL (≈ 0.685 µM) | MIC ([1]; pH 5.72, C. glabrata MRL 34407, pH 5.72, 24 hours, read-out: MIC (100% inhibition)): 1 µg/mL (≈ 1.37 µM) | MIC ([1]; pH 5.72, C. glabrata MRL 34576, pH 5.72, 24 hours, read-out: MIC (50% inhibition)): 0.5 µg/mL (≈ 0.685 µM) | MIC ([1]; pH 5.72, C. glabrata MRL 34576, pH 5.72, 24 hours, read-out: MIC (100% inhibition)): 1 µg/mL (≈ 1.37 µM) | MIC50 [1, 3]: 1 µg/mL (≈ 1.37 µM) | MIC90 [1, 3]: 1 µg/mL (≈ 1.37 µM) | MIC50 [1, 4]: 1 µg/mL (≈ 1.37 µM) | MIC90 [1, 4]: 2 µg/mL (≈ 2.74 µM) | MIC ([1]; pH 7, C. glabrata MRL 32075, pH 7.0, 24 hours, read-out: MIC (50% inhibition)): 0.5 µg/mL (≈ 0.685 µM) | MIC ([1]; pH 7, C. glabrata MRL 32075, pH 7.0, 24 hours, read-out: MIC (100% inhibition)): 1 µg/mL (≈ 1.37 µM) | MIC ([1]; pH 7, C. glabrata MRL 32232, pH 7.0, 24 hours, read-out: MIC (50% inhibition)): 1 µg/mL (≈ 1.37 µM) | MIC ([1]; pH 7, C. glabrata MRL 32232, pH 7.0, 24 hours, read-out: MIC (100% inhibition)): 1 µg/mL (≈ 1.37 µM) | MIC ([1]; pH 7, C. glabrata MRL 32626, pH 7.0, 24 hours, read-out: MIC (50% inhibition)): 0.5 µg/mL (≈ 0.685 µM) | MIC ([1]; pH 7, C. glabrata MRL 32626, pH 7.0, 24 hours, read-out: MIC (100% inhibition)): 1 µg/mL (≈ 1.37 µM) | MIC ([1]; pH 7, C. glabrata MRL 32993, pH 7.0, 24 hours, read-out: MIC (50% inhibition)): 0.5 µg/mL (≈ 0.685 µM) | MIC ([1]; pH 7, C. glabrata MRL 32993, pH 7.0, 24 hours, read-out: MIC (100% inhibition)): 1 µg/mL (≈ 1.37 µM) | MIC ([1]; pH 7, C. glabrata MRL 33204, pH 7.0, 24 hours, read-out: MIC (50% inhibition)): 1 µg/mL (≈ 1.37 µM) | MIC ([1]; pH 7, C. glabrata MRL 33204, pH 7.0, 24 hours, read-out: MIC (100% inhibition)): 1 µg/mL (≈ 1.37 µM) | MIC ([1]; pH 7, C. glabrata MRL 33960, pH 7.0, 24 hours, read-out: MIC (50% inhibition)): 0.5 µg/mL (≈ 0.685 µM) | MIC ([1]; pH 7, C. glabrata MRL 33960, pH 7.0, 24 hours, read-out: MIC (100% inhibition)): 1 µg/mL (≈ 1.37 µM) | MIC ([1]; pH 7, C. glabrata MRL 33961, pH 7.0, 24 hours, read-out: MIC (50% inhibition)): 1 µg/mL (≈ 1.37 µM) | MIC ([1]; pH 7, C. glabrata MRL 33961, pH 7.0, 24 hours, read-out: MIC (100% inhibition)): 1 µg/mL (≈ 1.37 µM) | MIC ([1]; pH 7, C. glabrata MRL 34339, pH 7.0, 24 hours, read-out: MIC (50% inhibition)): 1 µg/mL (≈ 1.37 µM) | MIC ([1]; pH 7, C. glabrata MRL 34339, pH 7.0, 24 hours, read-out: MIC (100% inhibition)): 1 µg/mL (≈ 1.37 µM) | MIC ([1]; pH 7, C. glabrata MRL 34407, pH 7.0, 24 hours, read-out: MIC (50% inhibition)): 1 µg/mL (≈ 1.37 µM) | MIC ([1]; pH 7, C. glabrata MRL 34407, pH 7.0, 24 hours, read-out: MIC (100% inhibition)): 2 µg/mL (≈ 2.74 µM) | MIC ([1]; pH 7, C. glabrata MRL 34576, pH 7.0, 24 hours, read-out: MIC (50% inhibition)): 1 µg/mL (≈ 1.37 µM) | MIC ([1]; pH 7, C. glabrata MRL 34576, pH 7.0, 24 hours, read-out: MIC (100% inhibition)): 2 µg/mL (≈ 2.74 µM) | MIC50 [2]: < 0.016 µg/mL
